Holding throughout (assay type): in vivo
For assay [1], the system named is A. retroflexus. Kind of assay: Herbicidal activity by field foliage treatment (Test example 3). Also noted: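 index 0 to 10 in 10% steps of herbicidal effect with 10 meaning complete death and 0 below 10%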. As to conditions: 1000 g effective component per hectare, day 14 after the treatment. A digest of the protocol: (§1)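 Seeds sown in field soil and kept 2 weeks in a greenhouse; foliage of the whole plant then sprayed with diluted wettable powder (1000 L/ha, 1000 g a.i./ha); plants returned to the greenhouse and scored for herbicidal effect on day 14.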

For assay [2], the system named is Indian millet. The assay is described as above. Details: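 index 0 to 10 in 10% steps of herbicidal effect with 10 meaning complete death and 0 below 10%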. To be noted: 1000 g effective component per hectare, day 14 after the treatment. A digest of the protocol:
as §1

The subject of assay [3] is Echinochloa crus-galli. The description is as above. Also noted: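 index 0 to 10 in 10% steps of herbicidal effect with 10 meaning complete death and 0 below 10%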. As to conditions: 1000 g effective component per hectare, day 14 after the treatment. A digest of the protocol:
(§2)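 Herbicidal effect was rated on day 14 following a foliar spray of 1000 g active ingredient per hectare, applied as water-diluted wettable powder at 1000 L/ha. Plants had been raised for 2 weeks in field soil under greenhouse conditions before spraying.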

In assay [4] the test system is Monochoria vaginalis. Kind of assay: Herbicidal activity by paddy field soil treatment (Test Example 1). To be noted: 1000 g of effective component per hectare, evaluated on day 21 after the treatment, criteria of Table 72. Details: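 index 0 to 10 in 10% steps of herbicidal effect with 10 meaning complete death and 0 below 10%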. A digest of the protocol:
(§3)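 Paddy soil was watered and puddled, seeded, then flooded to 3 cm. One day later the formulation, diluted with water, went onto the water surface at 1000 g/ha of active ingredient. After 21 days in the greenhouse, effects were scored.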

In assay [5] the test system is Echinochloa oryzicola. Described as above. Details: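 index 0 to 10 in 10% steps of herbicidal effect with 10 meaning complete death and 0 below 10%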. As to conditions: 1000 g of effective component per hectare, evaluated on day 21 after the treatment, criteria of Table 72. An outline of the steps: as §3
For assay [6], the system named is Scirpus juncoides Rocxb. The assay is described as above. Details: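 index 0 to 10 in 10% steps of herbicidal effect with 10 meaning complete death and 0 below 10%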. As to conditions: applied on water surface, 1000 g of effective component per hectare, day 21 after the treatment. A digest of the protocol:
as §3

Assay [7] has as its system Echinochloa crus-galli. Kind of assay: Herbicidal activity by field soil treatment (Test example 2). Also noted: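 index 0 to 10 in 10% steps of herbicidal effect with 10 meaning complete death and 0 below 10%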. As to conditions: 1000 g effective component per hectare, day 21 after the treatment. A digest of the protocol: (§4)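 Field soil filled 80 cm^2 pots; seeds were sown, covered, and the soil surface treated with a small sprayer. Dose: 1000 g/ha of active component from a water-diluted wettable powder, applied in 1000 L/ha. Greenhouse cultivation followed, with evaluation at day 21.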

The test system of assay [8] is A. retroflexus. The description is as above. Also noted: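 index 0 to 10 in 10% steps of herbicidal effect with 10 meaning complete death and 0 below 10%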. As to conditions: 1000 g effective component per hectare, day 21 after the treatment. A digest of the protocol: as §4
Assay [9] relates to Indian millet. The description is as above. Details: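 index 0 to 10 in 10% steps of herbicidal effect with 10 meaning complete death and 0 below 10%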. To be noted: 1000 g effective component per hectare, day 21 after the treatment. A digest of the protocol:
as §4

The test system of assay [10] is foxtail. The description is as above. To be noted: 1000 g effective component per hectare, day 21 after the treatment. As to the method: [table] Test for Determining Herbicidal Activity by Field Soil Treatment A 80 cm^2 wide plastic pot was filled with a field soil and seeds of each of Echinochloa crus-galli, foxtail, Indian millet, and A. retroflexus were sowed and then covered with soil. The wettable powder produced with reference to the Formulation example 1 was diluted water, and applied on the soil surface by using a small sprayer in an amount of 1000 liters per hectare so that the effective component is 1000 g per hectare. After that, the plants were cultivated in a greenhouse, and on day 21 after the treatment, evaluation was made by the criteria described in Table 72 for determining the herbicidal effects.

For assay [11], the system named is Setaria viridis. Kind of assay: Herbicidal activity by field foliage treatment (Test example 3). To be noted: 1000 g effective component per hectare, day 14 after the treatment. An outline of the steps: as §2

SMILES strings stand for the structures.
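For herbicidal effect index, Setaria viridis in this document: index 0 to 10 in 10% steps of herbicidal effect with 10 meaning complete death and 0 below 10%.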

On to `Cc1cccc(-n2c(=O)c(C(=O)C3=C(O)CCCC3=O)nn(C)c2=O)c1C` [I-89], for which the “herbicidal effect index, Amaranthus retroflexus” value in assay [1] and in [8] was 10 each time. Also, the “herbicidal effect index, Abutilon theophrasti” value in assay [2] and in assay [9] was 10 in each case. Further, the “herbicidal effect index, Echinochloa crus-galli” value in assay [3] and in assay [7] was 9 throughout. Moreover, the “Herbicidal effects index number, Monochoria vaginalis” value in assay [4] is recorded as 10. Besides, in assay [5], the “Herbicidal effects index number, Echinochloa oryzicola” value was 10. Moreover, in [6], the “herbicidal effect index, S. juncoides Rocxb.” value was determined as 10. For the same compound, the “herbicidal effect index, Setaria viridis” value in assay [10] amounted to 8; in assay [11] it was 10.
For `Cc1cccc(C)c1-n1c(=O)c(C(=O)C2=C(O)CCCC2=O)nn(C)c1=O` [I-92], the “herbicidal effect index, Amaranthus retroflexus” value in [1] and in [8] was 10 in each case. In addition, the “herbicidal effect index, Abutilon theophrasti” value in assay [2] and in [9] was 10 in each case. The “herbicidal effect index, Echinochloa crus-galli” value is listed as 10 in [3] and 9 in assay [7]. In addition, the “Herbicidal effects index number, Monochoria vaginalis” value in assay [4] was 10. In addition, the “Herbicidal effects index number, Echinochloa oryzicola” value in assay [5] is given as 10. Also, the “herbicidal effect index, S. juncoides Rocxb.” value in assay [6] was 10. Also, the “herbicidal effect index, Setaria viridis” value in [10] is recorded as 9; in assay [11], 10.
For `Cc1ccc(-n2c(=O)c(C(=O)C3=C(O)CCCC3=O)nn(C)c2=O)cc1F` [I-105], the “herbicidal effect index, Amaranthus retroflexus” value in [1] and in assay [8] was 10 throughout. The “herbicidal effect index, Abutilon theophrasti” value in [2] is recorded as 10; in assay [9], 9. The “herbicidal effect index, Echinochloa crus-galli” value in [3] turned out to be 10; in [7], 9. Moreover, the “Herbicidal effects index number, Monochoria vaginalis” value in assay [4] is recorded as 10. Moreover, in assay [5], the “Herbicidal effects index number, Echinochloa oryzicola” value was determined as 10. For the same compound, in assay [6], the “herbicidal effect index, S. juncoides Rocxb.” value is given as 10. The “herbicidal effect index, Setaria viridis” value in [10] and in [11] was 7 throughout.
For `Cc1cccc(-n2c(=O)c(C(=O)C3=C(O)CCCC3=O)nn(C)c2=O)c1` [I-58], the “herbicidal effect index, Amaranthus retroflexus” value in assay [1] and in [8] was 10 each time. Moreover, the “herbicidal effect index, Abutilon theophrasti” value in [2] and in assay [9] was 10 throughout. Moreover, the “herbicidal effect index, Echinochloa crus-galli” value in assay [3] and in assay [7] was 10 in each case. For the same compound, the “Herbicidal effects index number, Monochoria vaginalis” value in assay [4] came out at 10. The “Herbicidal effects index number, Echinochloa oryzicola” value in [5] is reported as 10. Besides, the “herbicidal effect index, S. juncoides Rocxb.” value in assay [6] is listed as 10. For the same compound, the “herbicidal effect index, Setaria viridis” value in assay [10] was 8; in assay [11] it was 10.
Consider `CC(C)n1c(=O)c(C(=O)C2=C(O)CCCC2=O)nn(C)c1=O` [I-4], for which the “herbicidal effect index, Amaranthus retroflexus” value is 9 in [1] and 10 in assay [8]. Moreover, the “herbicidal effect index, Abutilon theophrasti” value in [2] and in assay [9] was 9 throughout. The “herbicidal effect index, Echinochloa crus-galli” value in [3] and in assay [7] was 9 in each case. Moreover, the “Herbicidal effects index number, Monochoria vaginalis” value in assay [4] is 9. The “Herbicidal effects index number, Echinochloa oryzicola” value in [5] was determined as 9. The “herbicidal effect index, S. juncoides Rocxb.” value in [6] came out at 10. Also, the “herbicidal effect index, Setaria viridis” value in assay [10] and in [11] was 9 each time.
For `Cc1ccc(F)cc1-n1c(=O)c(C(=O)C2=C(O)CCCC2=O)nn(C)c1=O` [I-118], the “herbicidal effect index, Amaranthus retroflexus” value in assay [1] and in assay [8] was 10 throughout. Moreover, the “herbicidal effect index, Abutilon theophrasti” value in [2] is 10; in [9] it was 9. Further, the “herbicidal effect index, Echinochloa crus-galli” value in [3] is reported as 9; in [7] it was 10. In addition, the “Herbicidal effects index number, Monochoria vaginalis” value in [4] came to 10. Besides, in [5], the “Herbicidal effects index number, Echinochloa oryzicola” value was determined as 10. In addition, in assay [6], the “herbicidal effect index, S. juncoides Rocxb.” value turned out to be 10. For the same compound, the “herbicidal effect index, Setaria viridis” value worked out at 9 in assay [10] and 10 in [11].
Take `Cn1nc(C(=O)C2=C(O)CCCC2=O)c(=O)n(-c2ccc(C#N)cc2)c1=O` [I-74]: the “herbicidal effect index, Amaranthus retroflexus” value in assay [1] and in assay [8] was 10 each time. Moreover, the “herbicidal effect index, Abutilon theophrasti” value in assay [2] turned out to be 9; in assay [9] it was 10. Also, the “herbicidal effect index, Echinochloa crus-galli” value in assay [3] is on record as 9; in assay [7], 10. Further, the “Herbicidal effects index number, Monochoria vaginalis” value in assay [4] came out at 10. For the same compound, in [5], the “Herbicidal effects index number, Echinochloa oryzicola” value amounted to 10. The “herbicidal effect index, S. juncoides Rocxb.” value in [6] turned out to be 10. For the same compound, the “herbicidal effect index, Setaria viridis” value in [10] is reported as 7; in assay [11], 9.
In the case of `Cc1ccc(F)c(-n2c(=O)c(C(=O)C3=C(O)CCCC3=O)nn(C)c2=O)c1` [I-109], the “herbicidal effect index, Amaranthus retroflexus” value came to 9 in assay [1] and 10 in [8]. Moreover, the “herbicidal effect index, Abutilon theophrasti” value in assay [2] came to 9; in assay [9] it was 10. Moreover, the “herbicidal effect index, Echinochloa crus-galli” value came to 10 in assay [3] and 9 in assay [7]. Also, in [4], the “Herbicidal effects index number, Monochoria vaginalis” value is recorded as 10. In addition, the “Herbicidal effects index number, Echinochloa oryzicola” value in assay [5] is on record as 10. Also, the “herbicidal effect index, S. juncoides Rocxb.” value in [6] was 10. In addition, the “herbicidal effect index, Setaria viridis” value in [10] was found to be 6; in assay [11], 7.
In the case of `Cc1cncc(-n2c(=O)c(C(=O)C3=C(O)CCCC3=O)nn(C)c2=O)c1` [I-278], the “herbicidal effect index, Amaranthus retroflexus” value in assay [1] and in assay [8] was 10 in each case. Moreover, the “herbicidal effect index, Abutilon theophrasti” value in [2] came out at 9. Besides, the “herbicidal effect index, Echinochloa crus-galli” value in [3] is given as 10; in assay [7], 9. For the same compound, the “Herbicidal effects index number, Monochoria vaginalis” value in [4] is 9. Also, in assay [5], the “Herbicidal effects index number, Echinochloa oryzicola” value was found to be 8. Besides, the “herbicidal effect index, S. juncoides Rocxb.” value in assay [6] was found to be 10. The results for the “herbicidal effect index, Setaria viridis” value in [10] and in assay [11] were 9 and 10, respectively.
`Cc1ccc(-n2c(=O)c(C(=O)C3=C(O)C(C)(C)C(=O)C(C)(C)C3=O)nn(C)c2=O)c(C)c1` [VI-65]: the “herbicidal effect index, Amaranthus retroflexus” value in [1] and in assay [8] was 10 throughout. The “herbicidal effect index, Abutilon theophrasti” value in assay [2] and in [9] was 10 each time. Also, the “herbicidal effect index, Echinochloa crus-galli” value in assay [3] was found to be 9. Also, in assay [4], the “Herbicidal effects index number, Monochoria vaginalis” value was found to be 10. Also, the “Herbicidal effects index number, Echinochloa oryzicola” value in assay [5] came to 10. The “herbicidal effect index, S. juncoides Rocxb.” value in assay [6] was found to be 10. The “herbicidal effect index, Setaria viridis” value in assay [10] and in assay [11] was 7 throughout.
Regarding `COc1cc(-n2c(=O)c(C(=O)C3=C(O)CCCC3=O)nn(C)c2=O)ccc1C` [I-155], the “herbicidal effect index, Amaranthus retroflexus” value in [1] and in assay [8] was 10 in each case. In addition, the “herbicidal effect index, Abutilon theophrasti” value in [2] and in assay [9] was 10 throughout. Also, in assay [3], the “herbicidal effect index, Echinochloa crus-galli” value came to 9. Besides, in assay [4], the “Herbicidal effects index number, Monochoria vaginalis” value is 10. Besides, the “Herbicidal effects index number, Echinochloa oryzicola” value in [5] amounted to 10. Further, the “herbicidal effect index, S. juncoides Rocxb.” value in [6] is on record as 10. Also, the “herbicidal effect index, Setaria viridis” value in [10] and in assay [11] was 7 in each case.
Turning to `Cn1nc(C(=O)C2=C(O)CCCC2=O)c(=O)n(C2CCCCC2)c1=O` [I-19], the “herbicidal effect index, Amaranthus retroflexus” value amounted to 10 in [1] and 8 in assay [8]. Moreover, the “herbicidal effect index, Abutilon theophrasti” value in [2] is recorded as 10. Further, the “herbicidal effect index, Echinochloa crus-galli” value is 10 in assay [3] and 8 in [7]. Besides, the “Herbicidal effects index number, Monochoria vaginalis” value in assay [4] amounted to 10. For the same compound, the “Herbicidal effects index number, Echinochloa oryzicola” value in [5] amounted to 10. Further, the “herbicidal effect index, S. juncoides Rocxb.” value in assay [6] worked out at 10. The “herbicidal effect index, Setaria viridis” value amounted to 8 in assay [10] and 10 in assay [11].
